According to paper PMC11993615, “Design, synthesis and optimization of TarO inhibitors as multifunctional antibiotics against Methicillin-resistant Staphylococcus aureus” (npj Antimicrobials and Resistance, 2025):
Converted amounts (≈) assume the structure as drawn.

Legend:
[1] = test system: ΔtarO strain of USA300 LAC; assay: Chemical suppression test, Targocil on tarO null mutant control; settings: Targocil 2–64 μg/mL
[2] = test system: S.aureus USA300 LAC wild-type; assay: Antagonistic (chemical suppression) test of 18a against Targocil, checkerboard
[3] = test system: S.aureus USA300 LAC biofilm; assay: Static biofilm inhibition assay (crystal violet); assay type: cell-based, Staphylococcus aureus; settings: USA300 LAC; for concentration (as low as) significantly reducing biofilm formation: 24 h static culture
[4] = Cytotoxicity assay (Sulforhodamine B); assay type: cell-based; settings: human
Procedure: The cytotoxicity was detected by Sulforhodamine B method. The human pancreatic cancer cell line Capan-1, human colon cancer cell line HCT-116 and human lung adenocarcinoma cell line NCI-H1373 were purchased from American Type Culture Collection (ATCC; Manassas, VA) and inoculated into 96-well plates in triplicate. The cells were treated with different concentrations of compounds in humidified incubator containing 5% CO2 for 72 h when they reached 70%-80% confluence. Vincristine was added as a positive control. Then, SRB staining agent was added and microplate analyzer was used to read the absorbance at 450 nm wavelength. The cytotoxicity of each compound is expressed as the concentration of the compound that reduces cell viability to 50% (IC50). The optical density (OD) at a wavelength of 450 nm was measured using an SpectraMax 190 Microplate Reader (Molecular Devices; USA). The IC50 value was calculated by the Logit method using Graphpad Prism 9.1.

USA400 MW2 [5] = assay: MIC determination, broth microdilution; settings: Staphylococcus aureus
USA300 LAC [6] = assay: MIC determination, broth microdilution; settings: Staphylococcus aureus
MRSA HS663 strain = assay: Galleria mellonella larva infection assay; settings: for survival time of infected larvae: HS663 1.5 × 10^6 CFU
Procedure: Galleria mellonella infection experiment was performed according to previous methods[24]. Generally, HS663 was grown overnight in TSB (Tryptone Soya Broth) at 37 °C with shaking at 250 rpm. Then cultures were diluted 1:100 into 10 ml fresh TSB, and were further grown for 3 h. The bacterial cells were harvested by centrifugation at 5700 g for 5 min, washed twice with sterilized PBS, and suspended with PBS. Galleria mellonella larvae (Tianjin HuiYuDe Biotechnological Co., Ltd.) about 300 mg was selected to infect. […] After infection for 1 h, the larvae were administrated with compounds or solvent only. Then the Galleria mellonella larvae was cultivated at 37 °C and survival rates were recorded every 12 h for 5 days to analyze the mortality data.

USA400 MW2 [7] = assay: Checkerboard MIC assay with oxacillin; assay type: cell-based, Staphylococcus aureus; settings: for Sensitization fold / FICI / Maximum sensitization concentration / Minimum sensitization concentration: USA400 MW2/oxacillin; for Maximum sensitization concentration / Minimum sensitization concentration: test range 0.03–32 μg/mL; for MIC of β-lactam, combined: USA400 MW2
Procedure: (§1) In the checkerboard assay, concentrations of antibiotics, oxacillin and imipenem, and TarO inhibitors were simultaneously varied across columns and the rows, respectively. […] The range of each compound chosen for the checkerboard assay was according to their MIC value. […] For each clear well observed on the checkerboard MIC plate, the fractional inhibitory concentration index (FICI) was calculated as follows: FICI = FIC (inhibitor) + FIC (antibiotic) = MIC inhibitor in combination/ MIC inhibitor alone + MIC antibiotic in combination/MIC antibiotic alone. FIC = Fractional Inhibitory Concentration. A FICI value of < 0.5 indicates synergy, a value between 0.5 and 2 indicates additivity or indifference, and a value > 2 indicates antagonism.

USA300 LAC [8] = assay: Checkerboard MIC assay with oxacillin; assay type: cell-based, Staphylococcus aureus; settings: USA300 LAC/oxacillin; for Minimum sensitization concentration: test range 0.03–32 μg/mL
Procedure: as §1

TarO = TarO (Staphylococcus aureus, UniProt Q2G060); assay type: cell-based; settings: for IC50: relative inhibition rate against the wild-type strain, OD600 at 20 h, n.a. = IC50 cannot be calculated within the test range
[9] = test system: TntarO::vraXpro-lux (S.aureus JE2 tarO mutant); assay: vraXpro-lux induction and growth of tarO mutant (target verification); assay type: cell-based, Staphylococcus aureus; settings: different concentrations
Procedure: Second, the vraXpro-lux induction and growth inhibition experiment were conducted using a tarO mutant, as we assumed that a compound with other targets may still change the growth characteristic and the vraXpro-lux expression pattern of the mutant, whereas a TarO inhibitor would not, as its target is absent in the mutant.
Generally, JE2::vraXpro-lux and its isogenic ^TntarO::vraXpro-lux reporter strains were used for preliminary screening and cellular-based target verification. JE2::vraXpro-lux was obtained by transduction of the vraXpro-lux fusions from RN4220 strain to JE2, a plasmid-cured derivative of the community-associated MRSA strain USA300 LAC. ^TntarO::vraXpro-lux was further obtained by transposon insertion mutation of the tarO gene using a mariner-based transposon in JE2 reporter strain[41]. […] Then, 200 μL aliquot of the samples were distributed to a 96-well black-wall clear-bottom plate (Costar, Corning Incorporated), and 45 μL saxoline was added to each well to prevent the evaporation of the medium. vraXpro-lux expression level and the growth curve were measured using a Cytation 1 Multi-Mode Microplate Reader (Biotek) at different time points as indicated.

[10] = Solubility of compounds in water (HPLC); assay type: physicochemical; settings: pure water
Procedure: Weigh the sample in a 10 mL volumetric flask, dissolve in methanol up to the mark to obtain a reference solution of known concentration. Inject 5 μL into the HPLC, detect peak area at 254 nm wavelength. Prepare supersaturated aqueous solution of the sample, filter and inject 5 μL into the HPLC, detect peak area at 254 nm wavelength. The solubility of the compound in water […] is calculated according to the following formula: CS = CA × AB/AA (CA represents the concentration of the reference solution, AA represents the peak area of the reference solution, and AB represents the saturated peak area of the sample).

HS663 [11] = assay: Checkerboard MIC assay with imipenem; assay type: cell-based, Staphylococcus aureus; settings: for FICI / Sensitization fold / Maximum sensitization concentration / Minimum sensitization concentration: HS663/imipenem; for Maximum sensitization concentration / Minimum sensitization concentration: test range 0.03–32 μg/mL; for MIC of β-lactam, combined: HS663
Procedure: as §1

[12] = Preliminary liver microsomal stability testing; assay type: in vitro ADME, Mouse; settings: for Clint In Vitro / Comments (metabolic stability): Mouse liver microsomes; for half-life at 0.1 μM: pH 7.4, Mouse liver microsomes 0.33 mg/mL, 0.1 μM compound
Procedure: 6. Supplementary Ta b l e 3: Preliminary liver microsomal stability testing of Ta r O
Compounds Species T1/2 Clint In Vitro MF […]
a MF: metabolic bioavailability.
Microsomes in 0.1 M TRIS buffer pH 7.4 (final concentration 0.33 mg/mL), co- factor MgCl2 (final concentration 5 mM) and tested compound (final concentration 0.1 μM, co-solvent 0.01% DMSO and 0.005% Bovin serum albumin BSA) were incubated at 37°C for 10 min. The reaction was started by the addition of NADPH (final concentration 1 mM). Aliquots were sampled at 0, 5, 15, 30 and 60 min respectively and methanol (cold in wet ice) was added to terminate the reaction.
After centrifugation (4000rpm,5 min), samples were then analyzed by LC- MS/MS.

HS663 [13] = assay: MIC determination, broth microdilution
[14] = at maximum sensitization concentration
[15] = at minimum sensitization concentration
[16] = oxacillin with TarO inhibitor at maximum sensitization concentration
[17] = oxacillin with TarO inhibitor at minimum sensitization concentration
[18] = imipenem with TarO inhibitor at maximum sensitization concentration
[19] = imipenem with TarO inhibitor at minimum sensitization concentration
[20] = Capan-1 cells (human pancreatic cancer cell line), Capan-1, 72 h
[21] = HCT-116 cells (human colon cancer cell line), HCT-116, 72 h
[22] = NCI-H1373 cells (human lung adenocarcinoma cell line), NCI-H1373, 72 h

SMILES | MIC (USA400 MW2 [5]) [µg/mL] | MIC (USA300 LAC [6]) [µg/mL] | Sensitization fold (USA400 MW2 [7]; [14]) | Sensitization fold (USA400 MW2 [7]; [15]) | Maximum sensitization concentration (USA400 MW2 [7]) [µg/mL] | Minimum sensitization concentration (USA400 MW2 [7]) [µg/mL] | MIC of β-lactam, combined (USA400 MW2 [7]; [16]) [µg/mL] | MIC of β-lactam, combined (USA400 MW2 [7]; [17]) [µg/mL] | FICI (USA300 LAC [8]; [14]) | Sensitization fold (USA300 LAC [8]; [14]) | FICI (USA300 LAC [8]; [15]) | Sensitization fold (USA300 LAC [8]; [15]) | Minimum sensitization concentration (USA300 LAC [8]) [µg/mL] | IC50 (TarO) [µM] | FICI (HS663 [11]; [14]) | Sensitization fold (HS663 [11]; [14]) | FICI (HS663 [11]; [15]) | Sensitization fold (HS663 [11]; [15]) | Maximum sensitization concentration (HS663 [11]) [µg/mL] | Minimum sensitization concentration (HS663 [11]) [µg/mL] | also measured
CCN(CC)c1nc2c(S(=O)(=O)c3ccc(Cl)cc3)nnn2c2cc(OC)c(OC)cc12 [Targocil, reference compound] |  |  |  |  |  |  |  |  |  |  |  |  |  |  |  |  |  |  |  |  | lethal effect on the tarO mutant [1]: did not exhibit a lethal effect; MIC ([2]; Targocil alone, WT S.aureus): about 8 μg/mL
C[C@H]1[C@@H](c2cc(C(F)(F)F)cc(C(F)(F)F)c2)OC(=O)N1C(=O)CCn1ccc(=O)c2cccnc21 [Compound 18a] | > 256 | > 256 | 64 | 4 | 32 | 0.03 | 0.25 | 4 | <0.13 | 256 | <0.13 | 8 | 0.03 | 3.66 | <0.15 | 8 | <0.51 | 2 | 4 | 0.03 | concentration (as low as) significantly reducing biofilm formation [3]: 8 µg/mL; IC50 at 72 h ([4]; Capan-1, 72 h): > 20 µM; IC50 at 72 h ([4]; HCT-116, 72 h): > 20 µM; IC50 at 72 h ([4]; NCI-H1373, 72 h): > 20 µM; extension of survival time (MRSA HS663 strain; 16 mg/kg, higher infection dose, HS663 2.0 × 10^6 CFU): even higher than that of 20 mg/kg of imipenem treating group; survival rate of infected larvae, combination (MRSA HS663 strain; 18a 16 mg/kg in combination with 20 mg/kg imipenem, compared with imipenem alone, 2.0 × 10^6 CFU): a further improvement in the survival rate; survival time of infected larvae (MRSA HS663 strain; single administration 8 mg/kg): significantly extended the survival time; survival time of infected larvae (MRSA HS663 strain; single administration 16 mg/kg): significantly extended the survival time; FICI (USA400 MW2 [7]; [15]): <0.26; vraXpro-lux expression pattern and growth characteristics of the tarO mutant [9]: neither Tarocin A nor 18a further changed the vraXpro-lux expression pattern as well as the growth characteristics of the mutant; concentration (as low as) alleviating the growth inhibition of Targocil ([2]; WT strain, 18a range 0.25–128 μg/mL): 0.25 µg/mL; solubility [10]: 20 µg/mL (≈ 39 µM); MIC of β-lactam, combined (HS663 [11]; [18]): 8 µg/mL; MIC of β-lactam, combined (HS663 [11]; [19]): 32 µg/mL; Clint In Vitro [12]: 3051 mL/min/gprot; Comments (metabolic stability) [12]: poor and did not achieve the desired result; half-life at 0.1 μM [12]: 0.69 min; MIC (HS663 [13]; HS663, compound alone): exceeds 256 μg/mL; MIC (HS663 [13]; Staphylococcus aureus): > 256 µg/mL
C[C@H]1[C@@H](c2cc(C(F)(F)F)cc(C(F)(F)F)c2)OC(=O)N1C(=O)Cc1cccc2ccccc12 [Tarocin A, reference compound] | > 256 | > 256 | 16 | 2 | 0.5 | 0.06 | 1 | 8 | <0.26 | 4 | <0.51 | 2 | 0.06 | 9.7 | <0.14 | 8 | <0.51 | 2 | 2 | 0.25 | static biofilm formation ([3]; tested concentration range 0.03 to 32 μg/mL): did not reduce static biofilm formation; IC50 at 72 h [4, 20]: > 20 µM; IC50 at 72 h [4, 21]: > 20 µM; IC50 at 72 h [4, 22]: > 20 µM; FICI (USA400 MW2 [7]; [14]): <0.07; FICI (USA400 MW2 [7]; [15]): <0.51; induction of vraXpro-lux expression (TarO; MRSA USA300 LAC strain, exponential growth phase): concentration-dependent manner; bacterial growth density (OD600) (TarO; post-exponential growth phase): effectively reduced the bacterial growth density; vraXpro-lux expression pattern and growth characteristics of the tarO mutant [9]: neither Tarocin A nor 18a further changed the vraXpro-lux expression pattern as well as the growth characteristics of the mutant; water solubility [10]: almost insoluble in pure water; MIC of β-lactam, combined (HS663 [11]; [18]): 8 µg/mL; MIC of β-lactam, combined (HS663 [11]; [19]): 32 µg/mL; MIC (HS663 [13]; Staphylococcus aureus): > 256 µg/mL
COc1cc(C(F)(F)F)cc([C@H]2OC(=O)N(C(=O)CCn3ccc(=O)c4cccnc43)[C@H]2C)n1 [Compound 18b] | > 256 | > 256 | 32 | 2 | 32 | 0.06 | 0.5 | 8 | <0.19 | 16 | <0.26 | 4 | 0.25 | 12.3 | <0.08 | 16 | <0.51 | 2 | 2 | 0.12 | concentration (as low as) significantly reducing biofilm formation [3]: 8 µg/mL; IC50 at 72 h [4, 20]: > 20 µM; IC50 at 72 h [4, 21]: > 20 µM; IC50 at 72 h [4, 22]: > 20 µM; FICI (USA400 MW2 [7]; [14]): <0.16; MIC of β-lactam, combined (HS663 [11]; [18]): 4 µg/mL; MIC of β-lactam, combined (HS663 [11]; [19]): 32 µg/mL; Clint In Vitro [12]: 1267 mL/min/gprot; Comments (metabolic stability) [12]: poor; half-life at 0.1 μM [12]: 1.66 min; MIC (HS663 [13]; Staphylococcus aureus): > 256 µg/mL
